One assay concerns the target Trypanothione reductase (Trypanosoma cruzi, UniProt P28593). Kind of assay: Concentration required for inhibition of Trypanothione reductase (TcTR) from Trypanosoma cruzi in the presence of 50 uM TS2 as substrate.
Assay [1] can be described thus: Concentration required for inhibition of human homologous Disulphide oxidoreductase (hGR) in the presence of GSSG as substrate.
Assay [2] concerns the target Trypanothione reductase (Trypanosoma cruzi) (UniProt P28593). Kind of assay: Percentage inhibition of Trypanothione reductase at 25 uM in the presence of 200 uM DTNBA as substrate.
A short description of assay [3]: Concentration required for inhibition of human homologous Disulphide oxidoreductase (hGR).

A value given as a limit tells only on which side of the number the result lay.

Chain of Trypanothione reductase (P28593 whole entry): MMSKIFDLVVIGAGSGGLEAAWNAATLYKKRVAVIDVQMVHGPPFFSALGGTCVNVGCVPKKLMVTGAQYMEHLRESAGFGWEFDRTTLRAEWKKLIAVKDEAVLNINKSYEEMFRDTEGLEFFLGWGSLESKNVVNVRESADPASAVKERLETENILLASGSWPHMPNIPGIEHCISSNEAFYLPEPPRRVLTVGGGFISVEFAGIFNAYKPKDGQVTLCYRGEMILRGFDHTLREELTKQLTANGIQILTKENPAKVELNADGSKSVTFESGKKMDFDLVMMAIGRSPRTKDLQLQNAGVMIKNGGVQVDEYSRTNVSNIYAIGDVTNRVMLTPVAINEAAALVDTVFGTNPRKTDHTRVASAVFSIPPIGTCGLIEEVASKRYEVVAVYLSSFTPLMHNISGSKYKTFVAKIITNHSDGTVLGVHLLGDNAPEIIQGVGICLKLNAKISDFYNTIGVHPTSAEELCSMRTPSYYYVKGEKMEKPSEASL
Chain of Trypanothione reductase (Trypanosoma cruzi) (P28593 whole entry, looked up): as the sequence (P28593 whole entry) above

By IC50 is commonly meant the point on the concentration scale where inhibition reaches its midpoint. In general, inhibition refers to the percentage by which the read-out fell short of the control. Consider `CCCCN(CCCC)CCCNC(=O)CCCCC1=C(C)C(=O)c2ccccc2C1=O`, for which the IC50 on Trypanothione reductase was 1.1 µM; in assay [1] it was > 50 µM. Also, the inhibition in assay [2] worked out at 86%.
`CC1=CC(=O)c2ccccc2C1=O` [MENADIONE]: the figures for the IC50 (at Trypanothione reductase; in assay [3]) were 55 µM and 63 µM, respectively.
As for `CC1=C(CCCCC(=O)NCCCNCCCNC(=O)CCCCC2=C(C)C(=O)c3cccc(O)c3C2=O)C(=O)c2c(O)cccc2C1=O`, the values for the IC50 (on Trypanothione reductase; in assay [1]) were 0.5 µM and 10 µM, respectively. Moreover, in assay [2], the inhibition was 79%.
`CCCCN(CCCC)CCCNC(=O)CCCCC1=C(C)C(=O)c2cccc(O)c2C1=O`: the IC50 at Trypanothione reductase came out at 0.3 µM; in assay [1] it was 41 µM. In addition, the inhibition in assay [2] came out at 88%.
Regarding `CCCCN(CCCC)CCCNC(=O)CCCCC1=C(CCCCC(=O)NCCCN(CCCC)CCCC)C(=O)c2c(O)cccc2C1=O`, the values for the IC50 (on Trypanothione reductase; in assay [1]) were 0.6 µM and > 50 µM, respectively. Besides, in assay [2], the inhibition turned out to be 81%.
Take `CC1=CC(=O)c2c(O)cccc2C1=O` [PLUMBAGIN]: the results for the IC50 (at Trypanothione reductase; in assay [3]) were 28 µM and 38 µM, respectively.

Values taken from ChEMBL document CHEMBL1133437, “Parallel synthesis of a library of 1,4-naphthoquinones and automated screening of potential inhibitors of trypanothione reductase from Trypanosoma cruzi” (Bioorg Med Chem Lett, 2000).
